Data: patent US20050250137A1, “Molecular targets of cancer and aging” (priority 2002, published 2005)
Entries after “also recorded” stand apart in the source; their conditions may differ.

Experiments:
[1] = tested on: normal skin fibroblast cell line 1502 (CRL-1502); assay: Q-RT-PCR gene expression, normal fibroblasts 1502 treated or untreated with 5-aza-CdR; format: cell-based, human; details: before and after 5azaCdR
immortal MDAH041 cells = assay: Western blot protein expression after 5-aza-dC, immortal MDAH041; format: cell-based, human; details: for p16^INK4a protein upregulation: 5-aza-CdR-treated vs untreated immortal MDAH041; for p21 protein levels: 5-aza-dC treatment of immortal MDAH041
Experimental: Twenty μg of cell extract was boiled for 5 minutes in sample buffer, electrophoresed on a 15% SDS-polyacrylamide gel, and transferred to nitrocellulose. […] The anti-mouse IgG was incubated with the blot for 1 hour at room temperature. The signal was detected by enhanced chemiluminescence. […] Louis, Mo.). Lysates were incubated on ice for 30 minutes followed by centrifugation at 10,000×g. Protein was quantitated using the Bradford Reagent (Sigma, St. Louis, Mo.). Equal amounts of protein were electrophoresed in an appropriate percentage SDS-polyacrylamide gel (SDS-PAGE) and transferred to nitrocellulose membranes. The membranes were incubated with antibodies as indicated. […] The western blots were then incubated with a horseradish peroxidase-conjugated secondary and developed using SuperSignal West Pico (Pierce, Rockford, Ill.). As a control, parallel western blots were probed with α-Tubulin.

[2] = tested on: immortal MDAH087 cell lines; assay: Senescence phenotype (morphology, senescence-associated β-galactosidase), immortal MDAH087 cell lines; format: cell-based, human; details: 5-aza-dC treatment of immortal MDAH087 cell lines
nonimmortal cells = assay: Senescence-like state in nonimmortal cells after 5Aza-dC; format: cell-based, human; details: nonimmortal cells treated with 5Aza-dC
[3] = tested on: immortal (high passage) MDAH041 cells
[4] = Western blot, listed as 5AZA-dC
[5] = Western blot, after 5-aza-dC treatment, MDAH041
[6] = Western blot, immortal MDAH041 treated with 5-aza-dC

Nc1ncn([C@H]2C[C@H](O)[C@@H](CO)O2)c(=O)n1 [5-aza-dC, 5-aza-2′-deoxycytidine] was tested, and the “(2-5′) oligoadenylate synthetase E gene OAS1 expression, 1502 vs. 1502 5aza” value ([1]; ↑ increase) was 2↑ fold, the “CIG49 expression, 1502 vs. 1502 5aza” value ([1]; ↑ increase) was 1.1↑ fold and the “Interferon-induced 17-kDa/15-kDA expression, 1502 vs. 1502 5aza” value ([1]; ↑ increase) was 1.8↑ fold. The “Interferon-inducible protein p78 expression, 1502 vs. 1502 5aza” value ([1]; ↑ increase) was 1.8↑ fold, the “Interferon-regulatory factor 7B expression, 1502 vs. 1502 5aza” value ([1]; ↑ increase) was 1.5↑ fold and the “STAT 1, 91 kD expression, 1502 vs. 1502 5aza” value ([1]; ↑ increase) was 1.8↑ fold. For the same molecule, the “Interferon-inducible 56 kDa protein expression, 1502 vs. 1502 5aza” value ([1]; ↓ decrease) was 1.2↓ fold, the “Interferon-inducible membrane protein 9-27 (IFITM1) expression, 1502 vs. 1502 5aza” value ([1]; ↓ decrease) was 1.8↓ fold and the “MGSF expression, 1502 vs. 1502 5aza” value ([1]; ↓ decrease) was 3.2↓ fold. The “MIF expression, 1502 vs. 1502 5aza” value ([1]; ↓ decrease) was 1.7↓ fold, the “NDN expression, 1502 vs. 1502 5aza” value ([1]; ↓ decrease) was 1.4↓ fold and the “p16^INK4a protein upregulation” value (immortal MDAH041 cells; Western blot, listed as 5-aza-CdR) was “over 500 fold”. The “p16^INK4a protein upregulation” value (immortal MDAH041 cells; [4]) was “approximately 500 fold”, the p21 protein levels (immortal MDAH041 cells; Western blot) was “protein expression of both was induced” and the p21 protein levels (immortal MDAH041 cells; [4]) was “not regulated”. For the same molecule, the IGFBP4 protein (immortal MDAH041 cells; [5]) was “slight induction; also recorded: little to no induction”, the IGFBPrP1 protein (immortal MDAH041 cells; [5]) was “little to no induction” and the “p16^INK4a protein expression” value (immortal MDAH041 cells; [6]) was “protein expression of both was induced”. The “protein levels of STAT1α” value (immortal MDAH041 cells; [6]) was “increased in response to treatment”, the IGFBP3 protein levels (immortal MDAH041 cells; Western blot, response to 5-aza-dC, MDAH041) was “increased in response to 5-aza-dC” and the STAT1 protein upregulation (immortal MDAH041 cells; immortal cells, 5AZA-dC treatment) was 4.7 fold. The “senescent phenotype of treated cells” value [2] was “resulted in a flat senescence-like morphology and the activation of the senescence-associated β-galactosidase activity”, the “induction of senescence-like state” value (nonimmortal cells) was “does not result in an induction of an senescence-like state” and the “2-5A synthetase induced by interferon OAS-1 expression” value [3] was 76.5 fold. For the same molecule, the “2-5 oligoadenylate synthetase 59 kDa OAS-L expression” value [3] was 40.0 fold, the “041 5-aza Ave Signal Log” value [3] was 0.93 and the “(2-5′) oligoadenylate synthetase 59 kDa isoform OAS-L expression” value [3] was 40.0 fold. The “ALDH1A3 expression, 5A” value [3] was 2.8 fold, the “ALDH1A3 expression, IM vs 5-aza-dC, MA” value [3] was 2.8 fold and the Adlican expression [3] was 17.6 fold. For the same molecule, the “Aldehyde dehydrogenase 6 expression” value [3] was 4.1 fold, the “Aortic carboxypeptidase-like protein expression” value [3] was 12.3 fold and the “Associated molecule with the SH3 domain of STAM expression” value [3] was 7.6 fold. For the same molecule, the “B2-bradykinin receptor, 3 expression” value [3] was 3.8 fold, the “B94 protein (tumor necrosis factor-alpha-inducible) expression” value [3] was 5.5 fold and the “BAC clone RG118D07 from 7q31 expression” value [3] was 5.5 fold. The “BST-2 (bone marrow stroma cell surface gene) expression” value [3] was 38.7 fold, the Beta-thromboglobin-like protein expression [3] was 17.5 fold and the “Bone morphogenetic protein 2A expression” value [3] was 9.9 fold. For the same molecule, the “CDNA DKFZp564H142 expression” value [3] was 9.5 fold, the “CIG5 (cytomegalovirus induces interferon-responsive) expression” value [3] was 66.6 fold and the CIG5 vipirin expression [3] was 67.0 fold. For the same molecule, the “CIG49 (cytomegalovirus induces interferon-responsive) expression” value [3] was 70.2 fold, the “CIG49 Interferon-induced protein with tetratricopepide repeats 4 expression” value [3] was 70.2 fold and the “CLTB expression, 5A” value [3] was 1.5 fold. For the same molecule, the “CLTB expression, IM vs 5-aza-dC, MA” value [3] was 1.5 fold, the “CREG expression, 5A” value [3] was 2.2 fold and the “CREG expression, IM vs 5-aza-dC, MA” value [3] was 2.21 fold. For the same molecule, the “CYP1B1 expression, 5A” value [3] was 8.2 fold, the “Carbonic anhydrase precursor (CA 12) expression” value [3] was 8.9 fold and the “Complement cytolysis inhibitor (CLI) expression” value [3] was 5.1 fold. The “Complement factor H expression” value [3] was 6.8 fold, the “Cysteine-rich heart protein expression” value [3] was 8.8 fold and the “Cytokine (GRO-beta, GRO-2) expression” value [3] was 29.6 fold. The “Cytokine (GRO-gamma) expression” value [3] was 56.8 fold, the “DUSP6 (dual specificity MAP kinase-phosphatase) expression” value [3] was 4.6 fold and the “Dickkopf-1 (hdkk-1) expression” value [3] was 14.4 fold. The “Dioxin-inducible cytochrome P450 (CYP1B1) expression” value [3] was 6.9 fold, the “Dual-specificity protein phosphatase expression” value [3] was 12.6 fold and the “FLJ14675 expression, 5A” value [3] was 3.8 fold. The “Factor H homologue expression” value [3] was 7.5 fold, the Fibulin-2 expression [3] was 21.8 fold and the “Gamma-interferon-inducible protein (IP-30) expression” value [3] was 31.2 fold. The “Genes for histones H2B.1 and H2A expression” value [3] was 4.3 fold, the Gravin expression [3] was 12.2 fold and the “HEM45 (interferon-stimulated gene, 20-kd; ISG20) expression” value [3] was 50.2 fold. For the same molecule, the “HEM45, ISG-20 expression” value [3] was 50.2 fold, the “HLA class I locus C heavy chain expression” value [3] was 5.7 fold and the “HLA-F, gene for major histocompatibility complex class I F expression” value [3] was 29.4 fold. For the same molecule, the “HPS5 expression, 5A” value [3] was 1.6 fold, the “HSPA2 expression, 5A” value [3] was 1.6 fold and the “HSPA2 expression, IM vs 5-aza-dC, MA” value [3] was 1.6 fold. For the same molecule, the “HTATIP2 expression, 5A” value [3] was 5.6 fold, the “IGFBP3 expression, IM vs 5-aza-dC, MA” value [3] was 2.48 fold and the “IGFBP4 expression, IM vs 5-aza-dC, MA” value [3] was 3.72 fold. The “Inhibitor of apoptosis protein 1 expression” value [3] was 13.1 fold, the “Insulin-like growth factor binding protein 6 expression” value [3] was 5.9 fold and the “Insulin-like growth factor binding protein-4 expression” value [3] was 3.8 fold. The “Integral membrane glycoprotein LIG-1 (TM4SF1) expression” value [3] was 5.2 fold, the “Interferon regulatory factor 7B expression” value [3] was 17.5 fold and the “Interferon, alpha-inducible protein 27 expression” value [3] was 482.0 fold. For the same molecule, the “Interferon-induced p78, Mx1 expression” value [3] was 202 fold, the “Interferon-induced p78, MxB expression” value [3] was 122.1 fold and the “Interferon-inducible 56 Kd protein expression” value [3] was 36.6 fold. For the same molecule, the “Interferon-inducible 56 kDa protein expression” value [3] was 36.6 fold, the “Interferon-inducible membrane protein 9-27 (IFITM1) expression” value [3] was 8.8 fold and the “Interferon-inducible peptide (6-16) expression” value [3] was 10.2 fold. For the same molecule, the “Interferon-inducible protein 9-27 expression” value [3] was 8.8 fold, the “Interferon-inducible protein (Absent in Melanoma 2, AIM2) expression” value [3] was 21.6 fold and the “Interferon-inducible protein AIM2 (absent in melanoma) expression” value [3] was 21.6 fold. The “Interferon-inducible protein Mx1 expression” value [3] was 42 fold, the “Interferon-inducible protein p78, Mx2 expression” value [3] was 202 fold and the “Interferon-stimulated gene p27 mRNA expression” value [3] was 482.0 fold. The “Interleukin 8 expression” value [3] was 92.7 fold, the “K12 protein precursor (SECTM1) expression” value [3] was 19.6 fold and the KIAA0744 protein expression [3] was 8.6 fold. For the same molecule, the “KIAA 1077 protein Sulfatase FP expression” value [3] was 10.9 fold, the “KIAA1750 expression, 5A” value [3] was 2.9 fold and the “KIAA1750 expression, IM vs 5-aza-dC, MA” value [3] was 2.88 fold. For the same molecule, the “Keratin 18 expression” value [3] was 13.5 fold, the “Ly-6-related protein (9804) gene expression” value [3] was 34.1 fold and the “MAP1LC3B expression, 5A” value [3] was 1.7 fold. For the same molecule, the “Major group rhinovirus receptor (HRV) ICAM expression” value [3] was 28.9 fold, the “Major group rhinovirus receptor (HRV) expression” value [3] was 28.9 fold and the “Melanoma growth stimulatory activity (MGSA) (GRO-1) expression” value [3] was 64.6 fold. For the same molecule, the “Microphage migration inhibitory factor (MIF) expression” value [3] was 42.1 fold, the “Microtubular protein 44 expression” value [3] was 17.8 fold and the “Microtubular protein p44 (IFI44) expression” value [3] was 17.8 fold. For the same molecule, the “NK4 protein (natural killer cell transcript 4) expression” value [3] was 20.2 fold, the “Neurite outgrowth-promoting protein expression” value [3] was 7.1 fold and the “Neuromedin B Precursor expression” value [3] was 5.6 fold. The “Nk4 protein (natural killer cell transcript 4) expression” value [3] was 20.2 fold, the “OPTN expression, 5A” value [3] was 2.6 fold and the “OPTN expression, IM vs 5-aza-dC, MA” value [3] was 2.6 fold. For the same molecule, the Optineurin-like protein expression [3] was 4.2 fold, the “PCTAIRE 2 (pctaire protein kinase) expression” value [3] was 19.3 fold and the “Pig 7 expression” value [3] was 9.4 fold. For the same molecule, the “Placental protein 5 (PP5) expression” value [3] was 29.3 fold, the “Placental tissue factor (two forms) expression” value [3] was 8.7 fold and the “Putative monocarboxylate transporter expression” value [3] was 6.3 fold. The “Rad (Ras associated with diabetes) expression” value [3] was 19.7 fold, the “Retinoic acid receptor responder 3 expression” value [3] was 7.1 fold and the “SERPINB2 expression, 5A” value [3] was 4.2 fold. For the same molecule, the “SERPINB2 expression, IM vs 5-aza-dC, MA” value [3] was 4.2 fold, the “STAT1α expression, IM vs 5-aza-dC, MA” value [3] was 2.92 fold and the “Signal Transducer Activator of Transcription 1 STAT1 91 kDa expression” value [3] was 7.6 fold. The “Similar to gb: L 19779 HISTONE H2A.1 expression” value [3] was 10.3 fold, the “Skin collagenase MMP1 expression” value [3] was 4.8 fold and the “TESTIN 3 testis derived transcript (3 LIM domains) expression” value [3] was 8.1 fold. For the same molecule, the “TNF-related apoptosis inducing ligand TRAIL expression” value [3] was 42.2 fold, the “TNF-related apoptosis inducing ligand, TRAIL expression” value [3] was 42.2 fold and the “TNFAIP2 expression, 5A” value [3] was 5.4 fold. The “TNFAIP2 expression, IM vs 5-aza-dC, MA” value [3] was 5.41 fold, the “Tat-interacting protein TIP30 expression” value [3] was 8.9 fold and the “Transcription Factor MAFF expression” value [3] was 8.1 fold. The “Transcription factor ISGF-3 (Stat 1) expression” value [3] was 7.6 fold, the “Transglutaminase (TGase) expression” value [3] was 144.6 fold and the “Tripartite motif-containing protein 14, TRIM14 expression” value [3] was 6.2 fold. For the same molecule, the “Tumor antigen (L6) expression” value [3] was 17.5 fold, the “Tumor necrosis factor-inducible (TSG-6) expression” value [3] was 10.3 fold and the “Tyrosine protein kinase (CAK) gene expression” value [3] was 5.7 fold. The “Ubiquitin-conjugating enzyme E2L6 (UBE2L6) expression” value [3] was 5.9 fold, the “VAMP45 (vesicle-associated membrane protein 5) expression” value [3] was 9.1 fold and the “mRNA expressed in osteoblast expression” value [3] was 32.5 fold. For the same molecule, the “uPA gene (urokinase-plasminogen activator gene) expression” value [3] was 4.4 fold.
